The structures appear in SMILES notation. Bounds are passed on as bounds.

The target of this assay is T1, BTK (Homo sapiens, UniProt Q06187).
T1 construct: The GM01501.3 cell line endogenously expresses BTK with a HiBiT fusion tag via CRISPR knock-in at its C-terminal region; endogenous in cells; host or cells: GM01501.3 (GM01501 cells engineered by CRISPR knock-in of HiBiT at the BTK locus)
T1 sequence (Q06187 whole entry, the tested form may be a part): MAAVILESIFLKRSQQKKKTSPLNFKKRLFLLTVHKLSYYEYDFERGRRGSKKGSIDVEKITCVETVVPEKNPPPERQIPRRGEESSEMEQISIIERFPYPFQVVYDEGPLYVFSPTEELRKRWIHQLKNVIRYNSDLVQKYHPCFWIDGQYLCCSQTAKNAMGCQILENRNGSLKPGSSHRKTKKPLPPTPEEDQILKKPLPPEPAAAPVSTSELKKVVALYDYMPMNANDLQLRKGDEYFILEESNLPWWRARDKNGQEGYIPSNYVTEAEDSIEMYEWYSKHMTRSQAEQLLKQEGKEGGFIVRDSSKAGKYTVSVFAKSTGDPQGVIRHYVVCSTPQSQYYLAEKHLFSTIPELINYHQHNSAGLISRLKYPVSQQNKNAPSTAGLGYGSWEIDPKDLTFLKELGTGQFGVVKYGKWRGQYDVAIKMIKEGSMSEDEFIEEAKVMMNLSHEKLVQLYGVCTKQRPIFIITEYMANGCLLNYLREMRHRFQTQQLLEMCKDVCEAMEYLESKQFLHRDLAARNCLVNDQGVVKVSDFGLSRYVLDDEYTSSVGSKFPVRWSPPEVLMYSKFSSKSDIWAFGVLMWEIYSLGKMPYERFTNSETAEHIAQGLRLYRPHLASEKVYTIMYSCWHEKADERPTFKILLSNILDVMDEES
Nature of the assay: BTK degradation assay using the HiBiT Method (Nano-Glo HiBiT Lytic Assay, GM01501.3 cells). The format is cell-based. The note with it: HiBiT Degradation on GM01501.3 BTK @ 6 hours. The method, then: Selected compounds were tested in a BTK degradation assay using the HiBiT Method. Park Memorial Institute (RPM1) 1640 Medium with phenol red, L-Glutamine, Sodium Pyruvate, and fetal bovine serum (FBS) were purchased from Gibco (Grand Island, NY, USA). Nano-Glo® HiBiT Lytic Assay System was purchased from Promega (Madison, WI, USA). GM01501 cells were obtained from the NIGMS Human Genetic Cell Repository at the Coriell Institute for Medical Research. The GM01501.3 cell line endogenously expresses BTK with a HiBiT fusion tag via CRISPR knock-in at its C-terminal region. It was engineered by electroporation with the Neon Transfection System (Themo Fisher Scientific), according to manufacturer indications. Electroporation conditions: 1 pulse of 1,350 V for 30 ms for 0.5×10_6 cells. Cell culture flasks and 384-well microplates were acquired from VWR (Radnor, PA, USA). BTK degradation was evaluated by quantification of luminescent signal using Nano-Glo® HiBiT Lytic Assay kit. Test compounds were added to the 384-well plate from a top concentration of 10 μM with 11 points, half log titration in duplicates. GM01501.3 cells were added into 384-well plates at a cell density of 10,000 cells per well in a total volume of 30 μl. The plates were kept at 37° C. with 5% CO2 for 6 hours. Negative control wells included cells treated with DMSO only and positive control wells included only growing media, without Nano-Glo® HiBiT Lytic reagent. After a 6-hour incubation, Nano-Glo® HiBiT Lytic Assay reagent was added to the cells following manufacturer indications. Luminescence was acquired on EnVision™ Multilabel Reader (PerkinElmer, Santa Clara, CA, USA). […] “++++” represents a DC50 value of less than 100 nM. “+++” represents a DC50 value of 100 nM-500 nM. “++” represents a DC50 value of 500 nM-1000 nM. “+” represents a DC50 value of greater than 1000 nM.
On the technique in general: The HiBiT peptide binds its large partner to form an active luciferase.
In general, DC50 refers to the concentration giving 50% degradation. A low value points to a more potent degrader. Take `COc1cc(-c2ncnn3cc(-c4ccc(CN5CCC(c6ccc(C7CCC(=O)NC7=O)cc6)CC5)cc4)cc23)ccc1CNC(=O)c1noc(C(C)(C)C)n1` (stereo not drawn) [Example 43, 5-tert-butyl-N-[[4-[6-[4-[[4-[4-(2,6-dioxo-3-piperidyl)phenyl]-1-piperidyl]methyl]phenyl]pyrrolo[2,1-f][1,2,4]triazin-4-yl]-2-methoxy-phenyl]methyl]-1,2,4-oxadiazole-3-carboxamide]: the half-maximal degradation concentration (DC50) was less than 0.1 µM.

In turn, `Cc1cc(-c2ncnn3cc(CCN4CCC(c5ccc(OC6CCC(=O)NC6=O)cc5F)CC4)cc23)ccc1CNC(=O)c1noc(C(C)(C)C)n1` (stereo not drawn) [Example 254, 5-(tert-butyl)-N-(4-(6-(2-(4-(4-((2,6-dioxopiperidin-3-yl)oxy)-2-fluorophenyl)piperidin-1-yl)ethyl)pyrrolo[2,1-f][1,2,4]triazin-4-yl)-2-methylbenzyl)-1,2,4-oxadiazole-3-carboxamide] displayed a DC50 of less than 0.1 µM.

In the case of `CC(C)(C)c1nc(C(=O)NCc2ccc(-c3ncnn4cc(CCCCN5CCC(c6ccc(C7(C)CCC(=O)NC7=O)cc6)CC5)cc34)cc2F)no1` (stereo not drawn) [Example 140, 5-tert-butyl-N-[[2-fluoro-4-[6-[4-[4-[4-(3-methyl-2,6-dioxo-3-piperidyl)phenyl]-1-piperidyl]butyl]pyrrolo[2,1-f][1,2,4]triazin-4-yl]phenyl]methyl]-1,2,4-oxadiazole-3-carboxamide], the DC50 is less than 0.1 µM.

`Cn1nc(N2CCC(=O)NC2=O)c2ccc(C3CCN(CCCOc4cc5c(-c6ccc7c(c6)OCCCC7NC(=O)c6noc(C(C)(C)C)n6)ncnn5c4)CC3)cc21` (stereo not drawn) [Example 294, 5-(tert-butyl)-N-(8-(6-(3-(4-(3-(2,4-dioxotetrahydropyrimidin-1(2H)-yl)-1-methyl-1H-indazol-6-yl)piperidin-1-yl)propoxy)pyrrolo[2,1-f] [1,2,4]triazin-4-yl)-2,3,4,5-tetrahydrobenzo[b]oxepin-5-yl)-1,2,4-oxadiazole-3-carboxamide]: the DC50 is less than 0.1 µM.

In the case of `Cc1ccc(C(=O)NCc2ccc(-c3ncnn4cc(-c5ccc(CN6CCC(c7ccc(NC8CCC(=O)NC8=O)cc7)CC6)cc5)cc34)cc2C)cc1` (stereo not drawn) [Example 68, N-[[4-[6-[4-[[4-[4-[(2,6-dioxo-3-piperidyl)amino]phenyl]-1-piperidyl]methyl]phenyl]pyrrolo[2,1-f][1,2,4]triazin-4-yl]-2-methyl-phenyl]methyl]-4-methyl-benzamide], the DC50 was less than 0.1 µM.

Molecule `CC(C)(C)c1nc(C(=O)NCc2ccc(-c3ncnn4cc(-c5ccc(CN6CC[C@@H](c7ccc(NC8CCC(=O)NC8=O)cc7)CC67CC7)cc5)cc34)cc2F)no1` (stereo partly drawn) [Example 38, 5-tert-butyl-N-[[4-[6-[4-[[(7R)-7-[4-[(2,6-dioxo-3-piperidyl)amino]phenyl]-4-azaspiro[2.5]octan-4-yl]methyl]phenyl]pyrrolo[2,1-f][1,2,4]triazin-4-yl]-2-fluoro-phenyl]methyl]-1,2,4-oxadiazole-3-carboxamide] registered a DC50 of less than 0.1 µM.

`Cc1cc(-c2ncnn3cc(CCN4CCC(c5ccc6c(N7CCC(=O)NC7=O)nn(C)c6c5)CC4)cc23)ccc1CNC(=O)c1cn(C(C)(C)C)nn1` [Example 271] showed a DC50 of less than 0.1 µM.

`Cn1nc(N2CCC(=O)NC2=O)c2ccc(C3CCN(Cc4ccc(-c5cc6c(-c7ccc(CNC(=O)c8noc(C(C)(C)C)n8)c(F)c7)ncnn6c5)cn4)CC3)cc21` [Example 244, 5-(tert-butyl)-N-(4-(6-(6-((4-(3-(2,4-dioxotetrahydropyrimidin-1(2H)-yl)-1-methyl-1H-indazol-6-yl)piperidin-1-yl)methyl)pyridin-3-yl)pyrrolo[2,1-f][1,2,4]triazin-4-yl)-2-fluorobenzyl)-1,2,4-oxadiazole-3-carboxamide]: the DC50 was less than 0.1 µM.

`Cc1cc(-c2ncnn3cc(C#CCCN4CCC(c5ccc(C6CCC(=O)NC6=O)cc5)CC4)cc23)ccc1CNC(=O)c1noc(C(C)(C)C)n1` (stereo not drawn) [Example 291, 5-(tert-butyl)-N-(4-(6-(4-(4-(4-(2,6-dioxopiperidin-3-yl)phenyl)piperidin-1-yl)but-1-yn-1-yl)pyrrolo[2,1-f] [1,2,4]triazin-4-yl)-2-methylbenzyl)-1,2,4-oxadiazole-3-carboxamide] registered a DC50 of 0.1 to 0.5 µM.

The molecule `Cc1cc(-c2ncnn3cc(CCN4CC[C@H](c5ccc6c(N7CCC(=O)NC7=O)nn(C)c6c5)C4)cc23)ccc1CNC(=O)c1noc(C(C)(C)C)n1` (single isomer, unassigned) [Example 265] showed a DC50 of less than 0.1 µM.

On to `Cc1cc(-c2ncnn3cc(C4CC4CN4CCC(c5ccc(NC6CCC(=O)NC6=O)cc5)CC4)cc23)ccc1CNC(=O)c1noc(C(C)(C)C)n1` (stereo not drawn) [Example 145, 5-tert-butyl-N-[[4-[6-[2-[[4-[4-[(2,6-dioxo-3-piperidyl)amino]phenyl]-1-piperidyl]methyl]cyclopropyl]pyrrolo[2,1-f][1,2,4]triazin-4-yl]-2-methyl-phenyl]methyl]-1,2,4-oxadiazole-3-carboxamide], for which the DC50 was less than 0.1 µM.

`Cc1cc(-c2ccnc3nn(-c4ccc(CN5CCC(c6ccc(NC7CCC(=O)NC7=O)cc6)CC5)cc4)cc23)ccc1CNC(=O)c1noc(C(C)(C)C)n1` (stereo not drawn) [Example 159, 5-tert-butyl-N-[[4-[2-[4-[[4-[4-[(2,6-dioxo-3-piperidyl)amino]phenyl]-1-piperidyl]methyl]phenyl]pyrazolo[3,4-b]pyridin-4-yl]-2-methyl-phenyl]methyl]-1,2,4-oxadiazole-3-carboxamide]: the DC50 is 0.1 to 0.5 µM.

The molecule `Cc1cc(-c2ncnn3cc(-c4ccc(CN5CCC(c6ccc7c(N8CCC(=O)NC8=O)nn(C)c7c6)CC5)cc4)cc23)ccc1CNC(=O)c1noc(C(C)(C)C)n1` [Example 28, 5-tert-butyl-N-[[4-[6-[4-[[4-[3-(2,4-dioxohexahydropyrimidin-1-yl)-1-methyl-indazol-6-yl]-1-piperidyl]methyl]phenyl]pyrrolo[2,1-f][1,2,4]triazin-4-yl]-2-methyl-phenyl]methyl]-1,2,4-oxadiazole-3-carboxamide] showed a DC50 of less than 0.1 µM.

The molecule `CC(C)(C)OC1CN(C(=O)NCc2ccc(-c3ncnn4cc(CCCCN5CCC(c6ccc(NC7CCC(=O)NC7=O)cn6)CC5)cc34)cc2F)C1` (stereo not drawn) [Example 135, 3-tert-butoxy-N-[[4-[6-[4-[4-[5-[(2,6-dioxo-3-piperidyl)amino]-2-pyridyl]-1-piperidyl]butyl]pyrrolo[2,1-f][1,2,4]triazin-4-yl]-2-fluoro-phenyl]methyl]azetidine-1-carboxamide] displayed a DC50 of less than 0.1 µM.

Molecule `Cc1cc(-c2ncnn3cc(-c4ccc(CN5CCC(c6ccc(NC7CCC(=O)NC7=O)cc6)CC5)cc4)cc23)ccc1CNC(=O)c1noc(C(C)(C)C)n1` (single isomer, unassigned; isomer 1) [Example 2, 5-tert-butyl-N-[[4-[6-[4-[[4-[4-[(2,6-dioxo-3-piperidyl)amino]phenyl]-1-piperidyl]methyl]phenyl]pyrrolo[2,1-f][1,2,4]triazin-4-yl]-2-methyl-phenyl]methyl]-1,2,4-oxadiazole-3-carboxamide isomer 1] returned a DC50 of less than 0.1 µM.

As to `Cc1cc(-c2ncnn3cc(-c4ccc(CN5CCC(c6ccc(NC7CCC(=O)NC7=O)cc6)CC5)cc4)cc23)ccc1CNC(=O)N1CC(OC(C)(C)C)C1` (stereo not drawn) [Example 97, 3-tert-butoxy-N-[[4-[6-[4-[[4-[4-[(2,6-dioxo-3-piperidyl)amino]phenyl]-1-piperidyl]methyl]phenyl]pyrrolo[2,1-f][1,2,4]triazin-4-yl]-2-methyl-phenyl]methyl]azetidine-1-carboxamide], the DC50 is less than 0.1 µM.

`CC(C)(C)OC1CN(C(=O)NCc2ccc(-c3ncnn4cc(-c5ccc(CN6CCC(c7ccc(NC8CCC(=O)NC8=O)cc7)CC6)cc5)cc34)cc2F)C1` (stereo not drawn) [Example 99, 3-tert-butoxy-N-[[4-[6-[4-[[4-[4-[(2,6-dioxo-3-piperidyl)amino]phenyl]-1-piperidyl]methyl]phenyl]pyrrolo[2,1-f][1,2,4]triazin-4-yl]-2-fluoro-phenyl]methyl]azetidine-1-carboxamide] displayed a DC50 of less than 0.1 µM.

Take `Cc1cc(-c2ncnn3cc(-c4nccc(CN5CCC(c6ccc(C7CCC(=O)NC7=O)cc6)CC5)c4F)cc23)ccc1CNC(=O)c1noc(C(C)(C)C)n1` (stereo not drawn) [Example 217, 5-(tert-butyl)-N-(4-(6-(4-((4-(4-(2,6-dioxopiperidin-3-yl)phenyl)piperidin-1-yl)methyl)-3-fluoropyridin-2-yl)pyrrolo[2,1-f][1,2,4]triazin-4-yl)-2-methylbenzyl)-1,2,4-oxadiazole-3-carboxamide]: the 50% degradation concentration (DC50) was less than 0.1 µM.

These data come from patent US20240287076A1, “COMPOUNDS FOR TARGETING DEGRADATION OF BRUTON'S TYROSINE KINASE” (BIOGEN MA INC., priority 2021, published 2024).
